From patent US7084136B2, “Drug composition antagonistic to both PGD2/TXA2 receptors” (Shionogi & Co., Ltd., priority 2000, dated 2006) come the findings set out here.

The target in one assay is T1, PGD2 receptor (Homo sapiens, UniProt Q13258).
T1 construct: A suspension adjusted to contain the platelets at a final concentration of 5×10^8/ml was warmed at 37° C; endogenous in cells; host or cells: washed human platelets from a healthy volunteer
T1 sequence (Q13258 1-359): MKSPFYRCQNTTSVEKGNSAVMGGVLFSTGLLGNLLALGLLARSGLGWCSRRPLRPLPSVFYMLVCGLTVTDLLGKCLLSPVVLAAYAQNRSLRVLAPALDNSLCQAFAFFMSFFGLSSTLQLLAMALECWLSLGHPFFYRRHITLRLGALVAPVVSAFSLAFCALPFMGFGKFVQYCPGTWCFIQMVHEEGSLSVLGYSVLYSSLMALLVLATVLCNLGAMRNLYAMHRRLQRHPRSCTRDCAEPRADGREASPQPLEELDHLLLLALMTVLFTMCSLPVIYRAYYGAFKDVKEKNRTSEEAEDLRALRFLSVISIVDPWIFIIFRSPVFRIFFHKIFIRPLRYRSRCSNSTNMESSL
The assay is described as follows: Binding activity to PGD2 receptor ([3H]PGD2, human platelet membrane fraction).

A further assay concerns Male Hartley guinea pigs. The experiment in a line: Antigen-induced bronchial hyperresponsiveness (acetylcholine PD200, OVA-sensitized guinea pigs). The assay is classed as in vivo, guinea pig. The note with it: for inhibition of the induction of bronchial hyperresponsiveness: summary of Table 74 to Table 76, oral, guinea pig. The protocol: Comparative Experiment 2 Antigen-Induced Bronchial Hyperresponsiveness
Male Hartley guinea pigs were actively sensitized to ovalbumin (OVA) by inhalation of aerosolized solution of 1% ovalbumin twice at a week interval. One week after the second sensitization, the animals were treated with antihistamine, diphenhydramine (10 mg/kg, i.p.), and then challenged with 1% OVA aerosol for 5 min. Twenty four hours later, acetylcholine at doses at 3.13, 6.25, 12.5, 25, 50 and 100 micro g/kg was sequentially injected into the animals which were anesthetized with pentobarbital (30 mg/kg, i.p.). The bronchoconstriction induced by each dose of acetylcholine was monitored by the modified method of Konzett-Rössler technique, and made a dose-response curve of acetylcholine. Using the dose-response curve, the dose required for 200% increase in bronchoconstriction from baseline (PD200) was calculated in each animal and used as an indication of bronchial responsiveness. Compounds were orally administered 1 hour before antigen challenge. **: P<0.01 vs Vehicle(Dunnett's test), ^##: P<0.01 vs Vehicle(Student's t test).

Another assay deals with T2, TXA2 receptor (Homo sapiens, UniProt P21731).
T2 construct: The human platelet membrane fraction was prepared in accordance with Experiment 1 (1); from tissue; host or cells: human platelet membrane fraction from blood of healthy volunteers
T2 sequence (P21731 1-343): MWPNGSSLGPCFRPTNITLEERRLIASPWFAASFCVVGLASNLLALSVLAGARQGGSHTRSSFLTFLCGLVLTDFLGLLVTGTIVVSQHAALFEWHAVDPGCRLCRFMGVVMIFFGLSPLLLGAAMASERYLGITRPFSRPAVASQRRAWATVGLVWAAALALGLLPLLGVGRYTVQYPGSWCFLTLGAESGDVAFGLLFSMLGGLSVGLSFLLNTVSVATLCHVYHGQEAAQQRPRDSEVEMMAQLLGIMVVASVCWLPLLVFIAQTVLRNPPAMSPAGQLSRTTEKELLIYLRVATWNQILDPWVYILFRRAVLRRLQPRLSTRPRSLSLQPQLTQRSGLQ
The experiment in a line: Binding activity to TXA2 receptor ([3H](+)-S-145 sodium salt, human platelet membrane fraction).

[1] abbreviates: comparative experiment in accordance with Experiment 1, read-out: Experiment 1 Antagonistic activity against PGD2 receptor IC50.
The mark [2] stands for this setting: comparative experiment in accordance with Experiment 2, read-out: Experiment 2 Antagonistic activity against TXA2 receptor IC50.

pIC50: −log10 of the molar value. Like-named read-outs stand apart in the source and are kept apart here. Marks after values point to notes of the source that are not given here.

Regarding `O=C(O)CCC/C=C\C[C@H]1[C@@H]2CC[C@@H](C2)[C@@H]1NS(=O)(=O)c1ccccc1` [A, reference compound], the negative logarithm of the IC50 (pIC50) (in general, the negative decadic logarithm of the IC50, by convention in mol/L) on PGD2 receptor (setting [1]) was less than 5.00; on TXA2 receptor (setting [2]), 8.42. In addition, the “Log PD200” value with Male Hartley guinea pigs (1 mg/kg orally 1 hour before antigen challenge, OVA-sensitized guinea pigs, acetylcholine) was 1.29 ± 0.04; with Male Hartley guinea pigs (10 mg/kg orally 1 hour before antigen challenge, OVA-sensitized guinea pigs, acetylcholine) it was 1.61 ± 0.09**. For the same compound, the “inhibition of the induction of bronchial hyperresponsiveness” value in the assay with Male Hartley guinea pigs was “suppressed”.
Turning to `Cc1cccn1S(=O)(=O)c1ccc(C(=O)N[C@@H]2[C@@H](CCCC/C=C/C(=O)O)C[C@H]3C[C@@H]2C3(C)C)s1` [II-7I-55a], the pIC50 was 8.74 on PGD2 receptor (setting [1]); 8.74 at PGD2 receptor (human platelet membrane fraction, read-out: Binding activity to PGD2 receptor in human platelet membrane fraction IC50); 8.64 on TXA2 receptor (setting [2]); 8.64 at TXA2 receptor (human platelet membrane fraction, 2 nM [3H](+)-S-145 sodium salt, read-out: Binding activity to TXA2 receptor in human platelet membrane fraction IC50). Further, in the assay on Male Hartley guinea pigs (10 mg/kg orally 1 hour before antigen challenge, acetylcholine dose for 200% increase in bronchoconstriction, 24 h after OVA challenge), the “Log PD200” value was 1.442 ± 0.055**. In addition, the “inhibition of the induction of bronchial hyperresponsiveness” value in the assay with Male Hartley guinea pigs is listed as “suppressed”.
